# Assay results from US7947647B2, “Synthetic mimics of mammalian cell surface receptors: method and compositions” (The Penn State Research Foundation, priority 2004, dated 2011).
# “And” between values parts separate entries of the source, which are not always exact repeats. Equal values may be shown once.
# Tests used:
# Jurkat lymphocytes [1] = assay: Uptake of AcGFP-oligohistidine fusion proteins (flow cytometry); type: cell-based, human; details: receptor 10 μM preloaded 1 h, protein 3.2 μM, Ni(OAc)2 100 μM
# Protocol: FIG. 25. Analysis of cellular uptake of His-tagged AcGFP proteins by flow cytometry. Each bar represents the average fluorescence of 10,000 cells. Unless otherwise noted, cellular plasma membranes of Jurkat lymphocytes were preloaded with receptor 1 (10 μM) for 1 h at 37° C., cells were washed with fresh media, and His-tagged AcGFP (3.2 μM)/metal diacetate solution (100 μM) was added for 4 h at 37° C. Prior to analysis, cells were washed with NTA (400 μM, 30 min) in PBS (pH 7.4) to remove bound surface protein. Panel A: Dose dependence of receptor-mediated uptake. Premix conditions: a solution containing receptor 1, Ni(OAc)2, and AcGFP(His)10 was added to cells for 4 h. Panel B: Dependence on [Ni(OAc)2]. Panel C: Omission control experiments. Panel D; Uptake of (His)6 and (His)10 fusion proteins promoted by different metal diacetates.
# Preload conditions: To Jurkat lymphocytes (7×10^5) in RPMI media (0.5 mL) was added synthetic receptor 1 (typical final [Receptor 1]=10 μM) in DMSO (final [DMSO]=1%). These cells were incubated at 37° C. for 1 h to load the receptor into cellular plasma membranes. The cells were washed with RPMI media (0.5 mL) to remove unincorporated receptor/DMSO and resuspended in fresh media (87.6 μL). […]
# Jurkat lymphocytes [2] = type: cell-based
# Protocol: Analysis of cytotoxicity of protein delivery.
# To examine the toxicity of this metal acetate and protein delivery, cellular viability was examined by flow cytometry. In these experiments, Jurkat lymphocytes were treated with receptor 1 (10 μM, 1 h), followed by AcGFP(His)10 (3.2 μM), and Ni(OAc)2 (100 μM, 4 h) to enhance protein uptake by 600-fold. Cells were washed with disodium NTA to remove cell surface protein and were cultured for an additional 48 h. Cellular viability was determined by light scattering and staining the nuclei of membrane-compromised dead cells with the fluorophore propidium iodide. Under these conditions, 97% of the cells were viable, compared with 98.6% of untreated controls, and no effects on cellular morphology were observed. Other studies have similarly reported low toxicity of nickel salts at <160 μM in cell culture.^14 By enabling common oligohistidine affinity tags to function as cell penetrating peptides, synthetic receptor 1 provides a potentially versatile new probe of cellular biology.
# [3] = system: mouse J-774 cells and human HeLa cells; assay: Flow cytometric analysis of cellular uptake of fluorescent vancomycin 2; type: cell-based
# Protocol: FIG. 18. Flow cytometric analysis of cellular uptake of fluorescent vancomycin 2 promoted by synthetic receptor 3 and control compounds. Preload conditions: Receptor 3 or analogues (4, 5) were added to cells for 1 h to load the plasma membrane, cells were washed, and 2 (3 μM) was added for 4 h. Premix conditions: Receptor 3 or analogues (4, 5) were preequilibrated with 2 (3 μM) at 23° C. for 1 h followed by addition of this mixture to cells for 4 h.
# The dose-dependent effectiveness of delivery of 2 into mouse J-774 cells and human HeLa cells mediated by […] was examined quantitatively by flow cytometry.
Compound,intracellular delivery of AcGFP(His)10 above basal levels of endocytosis (Jurkat lymphocytes [1]),effects on viability or cellular morphology (Jurkat lymphocytes [2]),"cells viable (Jurkat lymphocytes [2]; human, 10 μM) [%]",effect of soluble competitor on receptor-mediated ligand uptake [3]
"CC(C)CCC[C@@H](C)[C@H]1CC[C@H]2[C@@H]3CC=C4C[C@@H](NCCCCC(=O)NCCC(=O)NCCC(=O)NCCCCC(C(=O)O)N(CC(=O)O)CC(=O)O)CC[C@]4(C)[C@H]3CC[C@]12C (stereo partly drawn) [receptor 1, 4-Carboxy-3-(carboxymethyl)-22-[(3β)-cholest-5-en-3-ylamino]-10,14,18-trioxo-3,9,13,17-tetraazadocosan-1-oic acid]",> 600 fold and 600 fold,No significant effects on viability or cellular morphology were observed,97,–
AcNH-D-Phe-D-Ala-CO2H,–,–,–,blocked
